ChEMBL document CHEMBL3039007, “Structure-based identification of OATP1B1/3 inhibitors” (Mol Pharmacol, 2013)

Experiments:
[1] = target: T1, Solute carrier organic anion transporter family member 1B1 (Homo sapiens, UniProt Q9Y6L6); details: chinese hamster, cho, 10 µM
T1 sequence (Q9Y6L6 whole entry): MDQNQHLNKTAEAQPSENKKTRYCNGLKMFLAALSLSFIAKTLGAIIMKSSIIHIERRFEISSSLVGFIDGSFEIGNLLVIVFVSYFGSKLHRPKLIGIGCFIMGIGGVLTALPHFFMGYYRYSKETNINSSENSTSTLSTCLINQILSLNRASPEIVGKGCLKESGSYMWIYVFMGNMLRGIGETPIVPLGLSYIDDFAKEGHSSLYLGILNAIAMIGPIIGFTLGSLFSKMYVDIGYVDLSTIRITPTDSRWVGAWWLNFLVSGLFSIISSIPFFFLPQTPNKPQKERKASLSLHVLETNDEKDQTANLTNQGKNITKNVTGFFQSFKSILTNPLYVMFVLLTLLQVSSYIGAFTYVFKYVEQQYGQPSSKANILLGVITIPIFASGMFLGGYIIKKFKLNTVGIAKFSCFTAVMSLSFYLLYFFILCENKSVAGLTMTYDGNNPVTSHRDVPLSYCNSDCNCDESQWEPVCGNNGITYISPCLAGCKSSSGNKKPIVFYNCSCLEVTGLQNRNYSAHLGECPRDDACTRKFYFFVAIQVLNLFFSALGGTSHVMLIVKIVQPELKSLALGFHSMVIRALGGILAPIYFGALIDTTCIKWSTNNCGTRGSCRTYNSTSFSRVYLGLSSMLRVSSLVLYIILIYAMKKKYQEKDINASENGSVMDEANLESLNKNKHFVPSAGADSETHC

[2] = target: T2, Solute carrier organic anion transporter family member 1B3 (Homo sapiens, UniProt Q9NPD5); details: chinese hamster, cho, 10 µM
T2 sequence (Q9NPD5 whole entry): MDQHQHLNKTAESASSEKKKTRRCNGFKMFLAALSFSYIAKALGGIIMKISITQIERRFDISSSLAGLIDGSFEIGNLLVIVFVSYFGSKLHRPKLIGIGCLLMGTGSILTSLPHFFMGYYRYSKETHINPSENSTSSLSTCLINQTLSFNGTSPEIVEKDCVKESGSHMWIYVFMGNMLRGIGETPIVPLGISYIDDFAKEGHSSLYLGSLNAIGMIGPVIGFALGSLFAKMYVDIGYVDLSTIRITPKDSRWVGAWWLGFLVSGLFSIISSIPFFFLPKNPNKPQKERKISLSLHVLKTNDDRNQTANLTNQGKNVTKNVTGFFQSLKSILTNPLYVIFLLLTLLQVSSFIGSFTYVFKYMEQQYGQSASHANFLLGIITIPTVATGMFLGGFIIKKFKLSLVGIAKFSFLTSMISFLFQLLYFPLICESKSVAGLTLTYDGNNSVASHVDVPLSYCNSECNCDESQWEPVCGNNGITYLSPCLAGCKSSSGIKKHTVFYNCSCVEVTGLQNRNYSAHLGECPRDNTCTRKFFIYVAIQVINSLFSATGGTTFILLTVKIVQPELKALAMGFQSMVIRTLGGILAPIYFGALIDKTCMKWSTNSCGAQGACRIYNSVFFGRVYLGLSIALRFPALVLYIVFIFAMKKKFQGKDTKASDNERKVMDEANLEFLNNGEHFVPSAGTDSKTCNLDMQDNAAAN

SMILES: CC(C)COCC(CN(Cc1ccccc1)c1ccccc1)N1CCCC1.Cl.O (stereo unspecified) [BEPRIDIL HYDROCHLORIDE]
- residual activity [1]: 124.1%
- residual activity [2]: 131.3%

SMILES: O=C(OCC(O)CO)c1ccccc1Nc1ccnc2cc(Cl)ccc12 (stereo unspecified) [GLAFENINE]
- residual activity [1]: 188.5%
- residual activity [2]: 130.7%

SMILES: CC(=O)O.CSC(=N)NCCC[C@H](N)C(=O)O [S-METHYL-L-THIOCITRULLINE ACETATE]
- residual activity [1]: 104.5%
- residual activity [2]: 107%

SMILES: O=C1OCCN1/N=C/c1ccc([N+](=O)[O-])o1 [FURAZOLIDONE]
- residual activity [1]: 91.17%
- residual activity [2]: 94.52%

SMILES: Cl.N=C(N)NC(=O)c1nc(Cl)c(N)nc1N.O.O [AMILORIDE HYDROCHLORIDE]
- residual activity [1]: 51.46%
- residual activity [2]: 65.11%

SMILES: Sc1ncnc2nc[nH]c12 [MERCAPTOPURINE ANHYDROUS]
- residual activity [1]: 107.8%
- residual activity [2]: 105.3%

SMILES: C[C@]12CC[C@H]3C(=CCc4cc(O)ccc43)[C@@H]1CCC2=O [EQUILIN]
- residual activity [1]: 88.55%
- residual activity [2]: 96.05%

SMILES: CC(=O)CCCCn1c(=O)c2c(ncn2C)n(C)c1=O [PENTOXIFYLLINE]
- residual activity [1]: 77.22%
- residual activity [2]: 79.59%

SMILES: CCCCOc1ccc(CC(=O)NO)cc1 [BUFEXAMAC]
- residual activity [1]: 89.04%
- residual activity [2]: 92.18%

SMILES: O=c1c(O)c(-c2ccc(O)c(O)c2)oc2cc(O)ccc12 [FISETIN]
- residual activity [1]: 56.32%
- residual activity [2]: 108.5%

SMILES: COc1cc(OC)c2c(c1Cl)O[C@@]1(C(=O)CC(=O)C[C@H]1C)C2=O
- residual activity [1]: 81.69%
- residual activity [2]: 85.63%

SMILES: C=CC1=C(C(=O)O)N2C(=O)[C@@H](NC(=O)/C(=N\O)c3csc(N)n3)[C@H]2SC1
- residual activity [1]: 92.13%
- residual activity [2]: 78.64%

SMILES: COc1ccc2c(c1)[C@@]1(C)CCC(=O)C[C@@H]1CC2 [5alpha-12-METHOXY-4,4-BISNOR-8,11,13-PODOCARPATRIEN-3-ONE]
- residual activity [1]: 131.2%
- residual activity [2]: 89.3%

SMILES: O=C1CCC(N2C(=O)c3ccccc3C2=O)C(=O)N1 (stereo unspecified) [THALIDOMIDE]
- residual activity [1]: 82.94%
- residual activity [2]: 101%

SMILES: COc1ccc(CN(CCN(C)C)c2ccccn2)cc1.O=C(O)/C=C\C(=O)O [PYRILAMINE MALEATE]
- residual activity [1]: 68.75%
- residual activity [2]: 101.4%

SMILES: O=C(O)c1ccc(S(=O)(=O)N(Cl)Cl)cc1 [HALAZONE]
- residual activity [1]: 97.95%
- residual activity [2]: 84.35%

SMILES: O=C1c2ccc(O)c(O)c2C(=O)c2c(O)ccc(O)c21 [QUINALIZARIN]
- residual activity [1]: 57.07%
- residual activity [2]: 75.87%

SMILES: CC(C)=CCC/C(C)=C/CC/C(C)=C/CO [FARNESOL]
- residual activity [1]: 89.38%
- residual activity [2]: 89.91%

SMILES: O=C(O)c1cc(O)c2cccc(O)c2n1 [XANTHURENATE]
- residual activity [1]: 115.8%
- residual activity [2]: 99.4%

SMILES: c1ccc2c3c([nH]c2c1)CNCC3 [TRYPTOLINE]
- residual activity [1]: 99.4%
- residual activity [2]: 98.72%

SMILES: COc1c(O)cc2oc3cc(O)c(CC=C(C)C)c(O)c3c(=O)c2c1CC=C(C)C [MANGOSTIN]
- residual activity [1]: 150.2%
- residual activity [2]: 110.4%

SMILES: O=c1[nH]cnc2nc[nH]c12 [HYPOXANTHINE]
- residual activity [1]: 92.05%
- residual activity [2]: 92.8%

SMILES: C[C@H]1C(=O)O[C@@H]2CCN3CC=C(COC(=O)[C@](C)(O)[C@]1(C)O)[C@H]23 [MONOCROTALINE]
- residual activity [1]: 100.7%
- residual activity [2]: 94.85%

SMILES: Cc1ccc(/N=C/N(C)/C=N/c2ccc(C)cc2C)c(C)c1 [AMITRAZ]
- residual activity [1]: 108.2%
- residual activity [2]: 87.86%

SMILES: O=C(/C=C/C=C/c1ccc2c(c1)OCO2)N1CCCCC1 [PIPERINE]
- residual activity [1]: 186.2%
- residual activity [2]: 97.82%

SMILES: CNC(=O)Oc1ccc2c(c1)[C@]1(C)CCN(C)[C@@H]1N2C [PHYSOSTIGMINE]
- residual activity [1]: 78.13%
- residual activity [2]: 80.76%

SMILES: Nc1ncnc2c1ncn2[C@H]1C[C@H](O)[C@@H](CO)O1 [DEOXYADENOSINE]
- residual activity [1]: 112.3%
- residual activity [2]: 106.4%

SMILES: O[C@@H]1[C@@H](O)[C@@H]2OC[C@@H](O2)[C@H]1O
- residual activity [1]: 105.1%
- residual activity [2]: 106%

SMILES: CC(C(=O)O)c1ccc2c(c1)[nH]c1ccc(Cl)cc12 (stereo unspecified) [CARPROFEN]
- residual activity [1]: 47.72%
- residual activity [2]: 77.78%

SMILES: CC(C)[C@@H](C)/C=C/[C@@H](C)[C@H]1CC[C@H]2C3=CCC4CC(=O)CC[C@]4(C)[C@H]3CC[C@]12C (stereo partly specified) [ERGOSTA-7,22-DIEN-3-ONE]
- residual activity [1]: 71.12%
- residual activity [2]: 94.39%

SMILES: Cc1ccc(/C(=C\CN2CCCC2)c2ccccn2)cc1.Cl
- residual activity [1]: 83.77%
- residual activity [2]: 76.5%

SMILES: NC(=O)NC(=O)Cc1ccccc1 [PHENACEMIDE]
- residual activity [1]: 93.72%
- residual activity [2]: 104.7%

SMILES: CCC(C)C(=O)O[C@@H]1C[C@]2(C)[C@H](c3ccoc3)OC(=O)CC23OC2(C)OC34[C@H](OC(=O)C(C)C)[C@@]3(O)[C@@H](OC(=O)[C@]5(C)O[C@H]5C)[C@]5(C)C[C@@]3(O)[C@@](C)([C@H]5CC(=O)OC)C14O2 (stereo partly specified)
- residual activity [1]: -0.3887%
- residual activity [2]: 0.6163%

SMILES: COc1cnc(NS(=O)(=O)c2ccc(N)cc2)nc1
- residual activity [1]: 233.5%
- residual activity [2]: 112.9%

SMILES: CC(=O)NC(Cc1ccccc1)C(=O)O (stereo unspecified) [AFALANINE]
- residual activity [1]: 114.2%
- residual activity [2]: 112.5%

SMILES: CN(C)CCCN1c2ccccc2CCc2ccccc21.Cl [IMIPRAMINE HYDROCHLORIDE]
- residual activity [1]: 61.55%
- residual activity [2]: 92.77%

SMILES: CN1CCN(CC(=O)N2c3ccccc3C(=O)Nc3cccnc32)CC1.Cl.Cl [PIRENZEPINE HYDROCHLORIDE]
- residual activity [1]: 103.8%
- residual activity [2]: 100.6%

SMILES: COC(=O)[C@H](Cc1ccccc1)NC(=O)[C@@H](N)CC(=O)O
- residual activity [1]: 85.37%
- residual activity [2]: 115%

SMILES: C(=C\c1ccccc1)/CN1CCN(C(c2ccccc2)c2ccccc2)CC1 [CINNARIZINE]
- residual activity [1]: 185.1%
- residual activity [2]: 102.7%

SMILES: Cc1cc(=O)oc2c(O)c(O)ccc12 [4-METHYLDAPHNETIN]
- residual activity [1]: 61.23%
- residual activity [2]: 78.2%

SMILES: CCN(CC)CCOC(=O)C(Cc1cccc2ccccc12)CC1CCCO1.O=C(O)C(=O)O (stereo unspecified) [NAFRONYL OXALATE]
- residual activity [1]: 74.24%
- residual activity [2]: 116.5%

SMILES: CCOC(=O)[C@H](CCc1ccccc1)N[C@@H](C)C(=O)N1CCC[C@H]1C(=O)O.O=C(O)/C=C\C(=O)O [ENALAPRIL MALEATE]
- residual activity [1]: 190.1%
- residual activity [2]: 110.9%

SMILES: O=C([O-])c1cc2cc(Cc3cccnc3)ccc2o1.[Na+]
- residual activity [1]: 121%
- residual activity [2]: 108.4%

SMILES: CN(C)CCN(Cc1ccccc1)c1ccccn1.O=C(O)CC(O)(CC(=O)O)C(=O)O [TRIPELENNAMINE CITRATE]
- residual activity [1]: 81.25%
- residual activity [2]: 93.75%

SMILES: CCCCNC(=O)NS(=O)(=O)c1ccc(C)cc1 [TOLBUTAMIDE]
- residual activity [1]: 125.3%
- residual activity [2]: 99.86%

SMILES: NC(CO)(CO)CO.O=C(c1ccccc1)c1ccc2n1CCC2C(=O)O (stereo unspecified) [KETOROLAC TROMETHAMINE]
- residual activity [1]: 196.1%
- residual activity [2]: 87.08%

SMILES: CC(C)CC(N(C)C)C1(c2ccc(Cl)cc2)CCC1.Cl (stereo unspecified)
- residual activity [1]: 96.94%
- residual activity [2]: 113.9%

SMILES: Cl[C@H]1[C@H](Cl)[C@@H](Cl)[C@@H](Cl)[C@H](Cl)[C@H]1Cl [LINDANE]
- residual activity [1]: 79.82%
- residual activity [2]: 90.09%
